The values below come from publication PMC9032693, “Biological Evaluation of New Thienopyridinium and Thienopyrimidinium Derivatives as Human Choline Kinase Inhibitors” (Pharmaceutics, 2022).

Read-outs that look alike come from different tables or passages of the source.

For one assay, the target named is T1, CKα1 (Homo sapiens, UniProt P35790).
T1 construct: an N-terminally His-tagged truncated form of CKα1 (Δ75–457) was cloned into a pET-28a vector; His tag (N); made in house; host or cells: E. coli BL21 (DE3) Star
Put plainly: Choline kinase assay ([methyl-14C]choline into PCho, purified enzyme). The assay is classed as biochemical. The conditions noted are these: for IC50: concentration required to inhibit CKα1 enzyme by 50%; for % Inhibition at 10 µM: purified CKα1, inhibitor 10 µM; for % Inhibition at 10 µM / % Inhibition at 30 µM: end-point assay; for % Inhibition at 30 µM: purified CKα1, inhibitor 30 µM. The protocol: The protein was produced and purified as previously described. Briefly, an N-terminally His-tagged truncated form of CKα1 (Δ75–457) was cloned into a pET-28a vector and expressed at 37 °C in E. coli BL21 (DE3) Star cells using 1 mM isopropyl β-D-1-thiogalactopyranoside (IPTG). After centrifugation, the cellular pellet was resuspended in 50 mM Tris-HCl pH 7.5, 500 mM NaCl, 0.2 mM phenylmethylsulphonyl fluoride (PMSF), DNase, and 0.5 mM β-mercaptoethanol, sonicated and subjected to a two-step purification procedure to isolate the target enzyme. […] Protein elution was completed using buffer A + 400 mM imidazole. A second size-exclusion chromatography step was then carried out to achieve complete purity. To this end, we used a HiPrep 26/60 Sephacryl 100 HR column (GE Healthcare, Little Chalfont, Buckinghamshire, UK) and a 20 mM Tris/HCl pH 7.5, 150 mM NaCl running buffer.
To study the effect of the compounds on CKα, an in vitro enzymatic assay was performed using the purified enzyme as previously reported in [19, 28, 29]. Briefly, the incorporation of ^14C from [methyl-^14C]choline into PCho in either the absence (control) or presence of different inhibitors at varying concentrations was used to determine the CK activity. The reaction mixture included 20 ng of purified CKα1, 10 mM ATP, 10 mM MgCl2, 100 mM Tris-HCl pH 8.5, and increasing concentrations of compounds. The mixture was preincubated at 37 °C for 5 min. Then, [methyl-^14C]choline chloride (1 mM, 4500 dpm/nmol) was added and the reaction was left to proceed for 10 min at 37 °C. The assay was stopped by immersing the reaction tubes in boiling water. PCho was separated by Thin Layer Chromatography using methanol/0.6% NaCl/28% NH4OH in water (50:50:5, v/v/v) as solvent. The radioactivity associated into PCho was determined in a Beckman 6000-TA (Madrid, Spain) liquid scintillation counter. The 50% inhibitory concentrations (IC50 values) were determined from the % enzyme activity at different concentrations of synthetic inhibitors relative to the control by using a sigmoidal dose–response curve (ED50plus v1.0 software).

The subject of another assay is MDA-MB-231. Briefly: Antiproliferative activity, resazurin assay, 72 h. The assay is classed as cell-based, human. Here is the method: (§1) Human cervix carcinoma (HeLa), Non-small lung adenocarcinoma (A549), Colon adenocarcinoma (HT29), and human triple negative breast cancer (MDA-MB-231) were cultured in Dulbecco’s modified Eagle’s media (DMEM). B-acute lymphoblastic leukemia (RS4;11 and SEM), T-acute lymphoblastic leukemia (Jurkat), and human promyelocytic cells (HL-60), were cultured in RPMI-1640 medium. Both media were purchased from Gibco, Life Technologies (Milan, Italy) and supplemented with 10% Fetal Bovine Serum (FBS, Invitrogen, Milan, Italy,). Every six months, each cell line was checked for the presence of mycoplasma by RT-PCR.
(§2) Stock solutions (10 mM) of the different compounds were made in DMSO. Cancer cells were seeded in tissue-treated, flat bottom, 384-well plates (Corning) according to their optimal density, (A549 1000 cells/wells; MDA-MB-231, HeLa and HT-29 2000 cells/well and finally Jurkat, HL-60 SEM and RS4;11 20.000 cells/well) in 27 µL of complete medium per well.
(§3) The day after cell seeding and immediately before cell treatment, 10 mM stock solutions of the compounds were pre-diluted to a […] concentration in 250 µL of Hank’s in a 96-well plate (Corning). Subsequent 1:5 dilutions were carried out using a microlab STAR 96-CORE liquid handling system (Hamilton), a robotized liquid handling tool that was employed for all steps, from cell seeding to drug dilution and cell treatment to ensure high reproducibility while reducing time for large screening execution. This pre-dilution step was necessary to avoid DMSO-related cytotoxicity and compound precipitation in the cell culture medium. In every case, DMSO concentration never exceeded 0.1%.
(§4) Positive (Bortezomib 1 µM) and negative (0.1% DMSO) controls were included in all the screened plates to allow for monitoring the Z’ factor throughout the entire screening. Cells were treated with 3 µL of the previously made dilutions; thus, generating a 6-point 5-fold dose–response curve starting from 10 µM. Within a plate, each drug concentration was tested in duplicate in two independent experiments for each compound.
(§5) Treated cells were then placed inside the CO2 incubator for 72 h at 37 °C. Cell viability was assessed by resazurin assay, in which 3 µL of resazurin per well were added using the previously described automated platform. Plates were placed in the incubator at 37 °C for 2 h, and then the fluorescence of each plate was read using a Spark 10 M multimode microplate reader (Tecan Group Ltd., Mannedorf, Switzerland) with 535 nm excitation wavelength and 600 nm emission wavelength.
(Alamar Blue is a resazurin reagent that responds to reducing activity.)

The test system of another assay is HeLa. Put plainly: Antiproliferative activity, resazurin assay, 72 h. In kind it is cell-based, human. The protocol:
as §1, §2, §3, §4, §5

The next assay relates to RS 4;11. Briefly: Antiproliferative activity, resazurin assay, 72 h. In kind it is cell-based, human. The protocol: as §1, §2, §3, §4, §5
A further assay has as its system A549. Put plainly: Antiproliferative activity, resazurin assay, 72 h. In kind it is cell-based, human. The protocol: as §1, §2, §3, §4, §5
In another assay the test system is HL-60. Briefly: Antiproliferative activity, resazurin assay, 72 h. In kind it is cell-based, human. Here is the method:
as §1, §2, §3, §4, §5

The next assay deals with SEM cells. Briefly: Antiproliferative activity, resazurin assay, 72 h. In kind it is cell-based, human. Here is the method:
as §1, §2, §3, §4, §5

A further assay deals with HT29. Put plainly: Antiproliferative activity, resazurin assay, 72 h. In kind it is cell-based, human. The protocol: as §1, §2, §3, §4, §5
A further assay deals with Jurkat. Briefly: Antiproliferative activity, resazurin assay, 72 h. The assay is classed as cell-based, human. Here is the method:
as §1, §2, §3, §4, §5

T1 sequence (P35790 75-457): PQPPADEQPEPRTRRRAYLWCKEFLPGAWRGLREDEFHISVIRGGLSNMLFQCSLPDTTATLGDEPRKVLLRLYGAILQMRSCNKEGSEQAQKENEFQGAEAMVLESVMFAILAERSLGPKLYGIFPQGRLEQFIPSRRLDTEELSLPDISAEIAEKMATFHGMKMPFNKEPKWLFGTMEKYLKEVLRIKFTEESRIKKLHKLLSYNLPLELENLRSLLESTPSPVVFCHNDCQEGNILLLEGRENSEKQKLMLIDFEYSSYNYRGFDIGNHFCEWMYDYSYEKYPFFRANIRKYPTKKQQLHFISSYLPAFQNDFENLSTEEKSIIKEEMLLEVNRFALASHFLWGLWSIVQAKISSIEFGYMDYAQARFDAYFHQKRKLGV

As to `[Br-].[Br-].c1cc2c(s1)c(N1CCCC1)nc[n+]2Cc1ccc(-c2ccc(C[n+]3cnc(N4CCCC4)c4sccc43)cc2)cc1` [Fa-21], the half-inhibitory concentration (IC50) (usually the concentration needed to halve the response being measured) against CKα1 is ≥ 5000 nM. Besides, the % Inhibition (usually the percentage by which the read-out fell short of the control) at 10 µM at CKα1 is given as 74.57%. The “% Inhibition at 30 µM” value at CKα1 is reported as 86.58%. Moreover, the GI50 (as a rule, the concentration at which growth is held to half of that of the control) with MDA-MB-231 was 1710 ± 400 nM; with HeLa, > 10000 nM; with RS 4;11, > 10000 nM; with A549, 220 ± 10 nM; in the assay with HL-60, 3400 ± 700 nM; with SEM cells, > 10000 nM. Further, the GI50 in the assay on HT29 is > 10000 nM; in the assay with Jurkat it was > 10 µM.
At CKα1, `[Br-].[Br-].c1cc2c(s1)c(N1CCCCC1)nc[n+]2Cc1ccc(-c2ccc(C[n+]3cnc(N4CCCCC4)c4sccc43)cc2)cc1` [Fa-24] came in with an IC50 of 2330 ± 210 nM. Moreover, the “% Inhibition at 10 µM” value at CKα1 is listed as 84.64%. In addition, at CKα1, the “% Inhibition at 30 µM” value turned out to be 98.40%. Further, the GI50 with MDA-MB-231 was 700 ± 70 nM; in the assay with HeLa, 7080 ± 1300 nM; in the assay with RS 4;11, > 10000 nM; in the assay with A549, 1170 ± 200 nM; in the assay with HL-60, 7280 ± 1100 nM; with SEM cells, > 10000 nM. The GI50 is > 10000 nM in the assay on HT29 and > 10 µM with Jurkat.
`[Br-].[Br-].c1cc2c(s1)c(N1CCCCC1)nc[n+]2Cc1ccc(OCCOc2ccc(C[n+]3cnc(N4CCCCC4)c4sccc43)cc2)cc1` [Fa-28] yielded an IC50 on CKα1 of 3250 ± 540 nM. Further, the “% Inhibition at 10 µM” value on CKα1 is on record as 87.69%. In addition, the “% Inhibition at 30 µM” value at CKα1 is 92.19%. The GI50 amounted to 190 ± 10 nM in the assay with MDA-MB-231; 590 ± 20 nM in the assay on HeLa; 2320 ± 30 nM in the assay with RS 4;11; 290 ± 20 nM in the assay with A549; 350 ± 10 nM in the assay with HL-60; 2410 ± 40 nM in the assay with SEM cells. In addition, the GI50 in the assay on HT29 is > 10000 nM; in the assay with Jurkat, > 10 µM.
Compound `c1cc2c(s1)c(N1CCCCCC1)nc[n+]2Cc1ccc(CCCCc2ccc(C[n+]3cnc(N4CCCCCC4)c4sccc43)cc2)cc1` [Fa-29] had an IC50 at CKα1 of 1080 ± 70 nM. Moreover, the inhibition – broadly, the relative decrease from the control value, in per cent – at 5 µM on CKα1 (purified CKα1, inhibitor 5 µM, read-out: percentage inhibition at 5 µM) was 85%. In addition, the GI50 worked out at 500 ± 20 nM in the assay on MDA-MB-231 (Homo sapiens, MDA-MB-231); 840 ± 40 nM in the assay with HeLa (Homo sapiens, HeLa); 1600 ± 100 nM in the assay with RS 4;11 (Homo sapiens, RS4-11); 140 ± 20 nM in the assay on A549 (Homo sapiens, A549); 550 ± 20 nM with HL-60 (Homo sapiens, HL-60); 1770 ± 200 nM in the assay with SEM cells (Homo sapiens). Further, the GI50 with HT29 (Homo sapiens, HT-29) is 1090 ± 200 nM; in the assay with Jurkat (Homo sapiens, Jurkat), 5.23 ± 0.8 µM.
For `[Br-].[Br-].c1cc2c(s1)c(N1CCCCC1)nc[n+]2Cc1ccc(CCCCc2ccc(C[n+]3cnc(N4CCCCC4)c4sccc43)cc2)cc1` [Fa-33], the IC50 against CKα1 was 1670 ± 80 nM. Moreover, the “% Inhibition at 10 µM” value at CKα1 is on record as 98.90%. The “% Inhibition at 30 µM” value at CKα1 is 97.80%. Besides, the GI50 with MDA-MB-231 worked out at 410 ± 20 nM; with HeLa, 280 ± 20 nM; with RS 4;11 it was 760 ± 100 nM; with A549, 160 ± 10 nM; with HL-60 it was 140 ± 10 nM; with SEM cells, 1370 ± 70 nM. For the same compound, the GI50 amounted to 1070 ± 100 nM in the assay on HT29 and 1.46 ± 0.1 µM in the assay on Jurkat.
